Measurements: patent US12616739B2, “GLP-1 prodrugs and uses thereof” (Novo Nordisk A/S, priority 2020, dated 2026)

Assay: Prodrug to drug conversion half-life in vitro, PBS pH 7.4, 37° C.
Type: physicochemical
Details: buffer
Method: General Methods for Measuring Conversion Half-Life
The assay was performed to investigate the conversion half-life of prodrug to drug of the prodrugs of the invention.
Peptide stock solutions were prepared by dissolving freeze-dried powder in PBS buffer to a target of 200 μM. PBS-buffer was Dulbecco's Phosphate Buffered Saline without CaCl2 and MgCl2, gibco 14190-094 adjusted to pH=7.4. The pH of the peptide stock solutions was adjusted to 7.4 with 0.02 M HCl or 0.02M NaOH. Samples were filled in Agilent HPLC vials with fixed insert. Vials were capped to prevent evaporation. The HPLC vials were incubated at 37° C. and samples were withdrawn at different time points over a period of 2 weeks, flash frozen at −80° C., and stored at −20° C. until analysis.
Sample analysis was carried out using UPLC coupled to UV detection at 215 nm and MS (UPLC-UV-MS). One μl of sample was injected on to a Waters Acquity UPLC with a flow-through-needle injection system and on to a Waters Acquity CSH C18 column (1*150 mm), with a particle size of 1.7 μm and held at 55° C. A flow-rate of 100 μl/min was delivered with a Binary solvent manager pump having 0.1% formic acid in water as solvent A and 0.1% formic acid in acetonitrile as solvent B. Gradient elution was carried out using 15-32% B from 0 to 4 min followed by 32 to 48% B from 4 to 54 min. […]

Compound `CC[C@H](C)[C@H](NC(=O)[C@H](Cc1ccccc1)NC(=O)[C@H](CCC(=O)O)NC(=O)[C@H](CCCCNC(=O)COCCOCCNC(=O)COCCOCCNC(=O)CC[C@H](NC(=O)CCCCCCCCCCCCCCCCC(=O)O)C(=O)O)NC(=O)[C@H](C)NC(=O)[C@H](C)NC(=O)[C@H](CCC(N)=O)NC(=O)CNC(=O)[C@H](CCC(=O)O)NC(=O)[C@H](CC(C)C)NC(=O)[C@H](Cc1ccc(O)cc1)NC(=O)[C@H](CO)NC(=O)[C@H](CO)NC(=O)[C@@H](NC(=O)[C@H](CC(=O)O)NC(=O)[C@H](CO)NC(=O)[C@@H](NC(=O)[C@H](Cc1ccccc1)NC(=O)[C@@H](NC(=O)CNC(=O)[C@H](CCC(=O)O)NC(=O)C(C)(C)NC(=O)[C@H](Cc1c[nH]cn1)NC(=O)CN(CCNC(=O)CC[C@H](NC(=O)CCCCCCCCCOc1ccc(C(=O)O)cc1)C(=O)O)C(=O)CN)[C@@H](C)O)[C@@H](C)O)C(C)C)C(=O)N[C@@H](C)C(=O)N[C@@H](Cc1c[nH]c2ccccc12)C(=O)N[C@@H](CC(C)C)C(=O)N[C@H](C(=O)N[C@@H](CCCNC(=N)N)C(=O)NCC(=O)N[C@@H](CCCNC(=N)N)C(=O)NCC(=O)O)C(C)C` [Chem. 18, Gly-N^α-2-[[(4S)-4-carboxy-4-[10-(4-carboxyphenoxy)decanoylamino]butanoyl]amino]ethyl-Gly-semaglutide] has a half-life of 115 h.

With `CC[C@H](C)[C@H](NC(=O)[C@H](Cc1ccccc1)NC(=O)[C@H](CCC(=O)O)NC(=O)[C@H](CCCCNC(=O)COCCOCCNC(=O)COCCOCCNC(=O)CC[C@H](NC(=O)CCCCCCCCCCCCCCCCC(=O)O)C(=O)O)NC(=O)[C@H](C)NC(=O)[C@H](C)NC(=O)[C@H](CCC(N)=O)NC(=O)CNC(=O)[C@H](CCC(=O)O)NC(=O)[C@H](CC(C)C)NC(=O)[C@H](Cc1ccc(O)cc1)NC(=O)[C@H](CO)NC(=O)[C@H](CO)NC(=O)[C@@H](NC(=O)[C@H](CC(=O)O)NC(=O)[C@H](CO)NC(=O)[C@@H](NC(=O)[C@H](Cc1ccccc1)NC(=O)[C@@H](NC(=O)CNC(=O)[C@H](CCC(=O)O)NC(=O)C(C)(C)NC(=O)[C@H](Cc1c[nH]cn1)NC(=O)CN(CCNC(=O)CC[C@H](NC(=O)CCCCCCCCCCOc1ccc(C(=O)O)cc1)C(=O)O)C(=O)CN)[C@@H](C)O)[C@@H](C)O)C(C)C)C(=O)N[C@@H](C)C(=O)N[C@@H](Cc1c[nH]c2ccccc12)C(=O)N[C@@H](CC(C)C)C(=O)N[C@H](C(=O)N[C@@H](CCCNC(=N)N)C(=O)NCC(=O)N[C@@H](CCCNC(=N)N)C(=O)NCC(=O)O)C(C)C` [Chem. 26, Gly-N^α-2-[[(4S)-4-carboxy-4-[11-(4-carboxyphenoxy)undecanoylamino]butanoyl]amino]ethyl-Gly-semaglutide] the half-life was 118 h.
